Assay results from publication PMC11013010, “Serendipitous Identification of Azine Anticancer Agents Using a Privileged Scaffold Morphing Strategy” (Molecules, 2024).
Converted amounts (≈) assume the structure as drawn. “And” between values parts separate entries of the source, which are not always exact repeats. Equal values may be shown once.

Experiments:
[1] = Cytotoxicity assay (CellTiter Glo) on lymphoma cells; conditions: human
[2] = system: H9 cells; assay: as above; conditions: ratio CC50 FB789 / CC50 H9
[3] = Cytotoxicity assay (CellTiter Glo) on colon epithelial carcinoma cells; conditions: human, Caco-2
[4] = system: Caco-2 cells; assay: as above; conditions: for TSI Caco-2: ratio CC50 FB789 / CC50 Caco-2
[5] = system: SARS-CoV-2; set-up: method as in PMID 36557962; conditions: half-maximal concentration inhibiting 50% of virus replication; cited from earlier work
[6] = Cytotoxicity assay (CellTiter Glo) on hepatocarcinoma cells; assay type: cell-based; conditions: human, Huh7 hepatocarcinoma cells, Huh7 hepatocarcinoma
Experimental: (§1) Cell-based assays were carried out on the normal human fibroblast FB789 cell line (kindly provided by Elena Dell’Ambra from IRCCS Istituto Dermopatico dell’Immacolata, Rome), on the Huh7 hepatocarcinoma cell line (kindly provided by Istituto Toscano Tumori, Core Research Laboratory, Siena, Italy), on the Caco-2 adenocarcinoma colorectal cell line (ATCC catalog. n. HTB-37), on the suspension H9 cell line (repository code ARP0001, NIBSC Centre for AIDS reagents) and on the adherent TZM-bl cell line (repository code ARP5011, NIBSC Centre for AIDS reagents).
(§2) High glucose Dulbecco’s Modified Eagle Medium with sodium pyruvate and L-glutamine (DMEM; Euroclone) was used to grow Huh-7 and TZM-bl. Minimum Essential Eagle Medium (EMEM; Euroclone) was used to propagate Caco-2. DMEM and EMEM were supplemented with 10% fetal bovine serum (FBS; Euroclone) and 1% penicillin/streptomycin (Pen/Strep, Euroclone). The growth medium with a lower concentration of FBS (1%) was used for viral propagation, cytotoxic and antiviral experiments in adherent cell lines. […] All cell lines were grown at 37 °C in a 5% CO2 atmosphere in a humidified incubator.
(§3) The cytotoxicity of all investigated compounds was assayed in all cells lines as previously described. Briefly, confluent cells were treated with decreasing compound concentrations for 48h. The final DMSO concentration used was never greater than 0.5% v/v. Each experiment was performed in duplicate and repeated in two independent experiments. Cell viability was calculated using the CellTiter Glo 2.0 kit (Promega, Madison, WI, USA) and luminescence values signal obtained from cells treated with serial dilution of the compounds were measured through the GloMax® Discover Multi mode Microplate Reader (Promega) and elaborated with GraphPad PRISM software version 9.0 (La Jolla, San Diego, CA, USA). […] A non-toxic dose of each compound was used as the starting concentration in the antiviral activity assay.

[7] = system: Huh7 cells; assay: as above; assay type: cell-based; conditions: for TSI Huh7: ratio CC50 FB789 / CC50 Huh7
Experimental: as §1, §2, §3

[8] = Cytotoxicity assay (CellTiter Glo) on normal fibroblasts; assay type: cell-based, human; conditions: human, FB789 normal fibroblast cells
Experimental: as §1
(§4) The FB789 was cultured in Dulbecco’s Modified Eagle Medium (DMEM) and Ham’s F10 in a ratio of 50%, supplemented with 10% FBS, 2 mM L-glutamine, and 10,000 unit/mL penicillin/streptomycin.
as §3

[9] = system: WNV; assay: WNV antiviral yield reduction assay in Huh7; conditions: read-out: potency on WNV; flavivirus WNV
[10] = system: DENV; assay: DENV antiviral yield reduction assay in Huh7; conditions: read-out: potency on DENV; flavivirus DENV
[11] = Metabolic stability assay with human liver microsomes; assay type: in vitro ADME; conditions: 1 h, 37 °C, 50 µM
Experimental: A DMSO solution of selected compounds was incubated in the presence of phosphate buffer (25 mM, pH 7.4), human liver microsomal protein (200 µg/mL), and an NADPH regenerating system in MgCl2 (48 mM) at a final concentration of 50 µM. The metabolic reactions were conducted for 1 h under shaking at 37 °C and then stopped by adding cold acetonitrile (ACN). Centrifuging the mixtures at 5000 rpm, the supernatant was separated, dried under nitrogen flow, and finally suspended in methanol (MeOH). The amount of the parent drug and the metabolites were determined as previously described.

[12] = Kinetic aqueous solubility; assay type: physicochemical; conditions: Milli-Q water, 25 °C, kinetic from dmso stock; for solubility kinetic at 3 h: water, Mill-Q H2O, RT, LOD 0.1 µg/mL
Experimental: For the quantitative analysis, a UV/LC-MS system was used. LC analysis was performed through an Agilent 1260 Infinity HPLC-DAD system (Agilent Technologies, Palo Alto, CA, USA), which constituted of a vacuum solvent degassing unit, a binary high-pressure gradient pump, and a UV detector, that was connected to an Agilent MSD 6130 system (Agilent Technologies, Palo Alto, CA, USA). The Agilent 1260 series mass spectra detection (MSD) single-quadrupole instrument was equipped with the orthogonal spray API-ES (Agilent Technologies, Palo Alto, CA, USA). Nitrogen was used as a nebulizing and drying gas. Chromatographic separation was performed using a Phenomenex Kinetex EVO C18-100 Å (150 × 4.6 mm, 5 μm particle size) at 25 °C and a gradient elution with a binary solution; eluent A was H2O, while eluent B consisted of ACN (both eluents were acidified with FA 0.1% v/v). […] UV detection was monitored at 254 nm. Spectra were acquired over the scan range m/z 100–1500 in positive mode.
DMSO-stock compounds’ solutions were diluted with Mill-Q H2O to a final concentration of 200 μM. The percentage of DMSO never exceeded 2% v/v. Samples were incubated under gentle shaking at 25 °C (RT) conditions for 3 h. The suspensions were filtered using a 0.45 µm nylon filter (Acrodisc, VWR, Radnor, PE, USA), and the amount of solubilized compound was determined with the HPLC-UV-MS method reported above. The quantification of the solubilized compound was made with the appropriate calibration curve realized with stock solutions in DMSO (0.1–100 µg/mL). The limit of detection (LOD) was quantified at 0.1 µg/mL.

[13] = Plasma stability assay; assay type: in vitro ADME; conditions: human plasma, 24 h, 37 °C; % of Time 0
Experimental: A DMSO solution of each compound was incubated at a final concentration of 100 µM at 37 °C under shaking with HEPES buffer (25 mM, 140 mM NaCl, pH 7.4) and human plasma. At time 0 and after 24 h, samples were collected from the reaction mixtures and treated with cold ACN. After centrifugation at 5000 rpm for 10 min, the supernatant was collected, and the amount of unmodified compound was determined using the HLPC-UV/MS method described above. Modified compounds were calculated using time zero as 100% of the unmodified compound.

[14] = Parallel artificial membrane permeability assay (PAMPA); assay type: in vitro ADME; conditions: GI, pH 7.4, 5 h, RT
Experimental: To evaluate the apparent permeability of tested compounds, a DMSO stock solution [1 mM] of each derivative was prepared and then diluted 1:1 v/v with phosphate buffer (PBS 25 mM, pH 7.4) in order to make the donor solutions. According to the protocol already published, the gastrointestinal (GI) phospholipidic bilayer was mimed through adding a 1% w/v dodecane solution of phosphatidylcholine (PC). The sandwich plates were assembled and incubated for 5 h at RT. At the end time point, the amount of compound passed through the phospholipid bilayer was measured using HPLC-UV/MS. Finally, apparent permeability (Papp) and membrane retention (MR%) were calculated as previously described.

[15] = system: FB789 cells; assay: Cytotoxicity assay (CellTiter Glo) on normal fibroblasts; assay type: cell-based, human; conditions: pyrimidines and pyridines, read out at 48 h, mean ± SD
Experimental: as §1, §4, §3

[16] = triazines 1-9, read-out 48 h, Cell-Titer Glo
[17] = pyrimidines and pyridines, read out at 48 h, mean ± SD
[18] = 21a vs triazine 4, 33b vs triazine 6

| Structure (SMILES) | CC50 at 48 h [1] [µM] | CC50 at 48 h [3] [µM] | Metabolic Stability [11] [%] | solubility kinetic at 3 h [12] [µg/mL] | Plasmatic Stability [13] [%] | TSI H9 ([2]; pyrimidines and pyridines) | TSI Caco-2 ([4]; pyrimidines and pyridines) | MR (membrane retention) [14] | Papp at 5 h, 0.5 mM [14] [nm/s] | CC50 at 48 h [6, 17] [µM] | TSI Huh7 ([7]; pyrimidines and pyridines) | CC50 at 48 h [8, 17] [µM] | further results |
| --- | --- | --- | --- | --- | --- | --- | --- | --- | --- | --- | --- | --- | --- |
| Oc1ccccc1/C=N/Nc1nc(N2CCOCC2)nc(N2CCOCC2)n1 [Compound 1] | > 100 | > 400 | – | – | – | – | – | – | – | – | – | – | TSI H9 ([2]; triazines 1-9): <0.3; TSI Caco-2 ([4]; triazines 1-9): <0.1; IC50 [5]: 12.1 µM; CC50 at 48 h ([6]; triazines 1-9, read-out 48 h): > 100 µM; TSI Huh7 ([7]; triazines 1-9): <0.3; CC50 at 48 h [8, 16]: 30 ± 6 µM |
| Oc1ccccc1/C=N/Nc1nc(Nc2ccc(F)cc2)nc(N2CCOCC2)n1 [Compound 4] | 2 ± 1 | 3 ± 1 | – | – | – | – | – | – | – | – | – | – | IC50 [9]: 1.1 µM; IC50 [10]: 2 µM; TSI H9 ([2]; triazines 1-9): 5.5; TSI Caco-2 ([4]; triazines 1-9): 3.7; CC50 at 48 h ([6]; triazines 1-9, read-out 48 h): 9 ± 1 µM; TSI Huh7 ([7]; triazines 1-9): 1.2; CC50 at 48 h [8, 16]: 11 ± 3 µM |
| Oc1ccccc1/C=N/Nc1cc(Nc2ccc(F)cc2)nc(Nc2ccc(F)cc2)n1 [Compound 19a] | 31 ± 8 | 2 ± 1 | >99.9 | < 0.1 | 86.64 ± 0.17 | 0.5 | 7.0 | 20.99% and 20.91 ± 1.75% | 35.9 ± 2.1 | 1 ± 0.3 | 14.0 | 14 ± 3 | – |
| Cc1cccc(/C=N/Nc2cc(Nc3ccc(F)cc3)nc(Nc3ccc(F)cc3)n2)c1 [Compound 19b] | 48 ± 3.5 | 4 ± 1 | 98.31 ± 0.11 | < 0.1 | >99.9 | 1.3 | 15.3 | 27.42% and 27.42 ± 1.22% | 56.4 ± 5.9 | 6 ± 1 | 10.2 | 61 ± 9 | – |
| Oc1ccccc1/C=N/Nc1cc(Nc2ccc(F)cc2)nc(N2CCOCC2)n1 [Compound 21a] | 11 ± 2 | 2 ± 0.4 | >99.9 | < 0.1 | 96.93 ± 2.73 | no selectivity | 5.0 | 26.03 ± 6.17% | 48 ± 7.3 | 3 ± 1 | 3.3 | 10 ± 5 | fold higher TSI than reference triazine, Caco-2 [4, 18]: 1.4 fold; fold higher TSI than reference triazine, Huh7 [7, 18]: 2.8 fold |
| Cc1cccc(/C=N/Nc2cc(Nc3ccc(F)cc3)nc(Nc3ccc(F)cc3)c2)c1 [Compound 33b] | 23 ± 7 | 11 ± 9 | >99.9 | < 0.1 | 81.01 ± 3.28 | 17.0 | 35.5 | 46.84% and 46.84 ± 4.99% | 13.8 ± 6 | 21 ± 12 | 18.6 | 390 ± 30 | CC50 FB789 [15]: very low cytotoxic effect |
| Cc1cccc(/C=N/Nc2cc(Nc3ccc(F)cc3)nc(N3CCOCC3)c2)c1 [Compound 38b] | 18 ± 4 | 8 ± 3 | 97.93 ± 0.46 | 0.54 (≈ 1.33 µM) | 87.13 ± 0.48 | 5.0 | 11.3 | – | 63.5 ± 6.7 | 9 ± 6 | 10.0 | 90 ± 9 | solubility at 3 h ([12]; log of kinetic water solubility, read-out: LogS (converted)): 1.35 µM (≈ 0.547 µg/mL); CC50 FB789 [15]: very low cytotoxic effect |
